Experiments:
Type in all cases: in vivo, mouse
TAC mice = assay: Echocardiography after transverse aorta constriction (TAC); conditions: NR enriched diet 400 mg/kg/day vs untreated TAC group
Experimental: Transverse aorta constriction was performed in 2 month-old male mice under anesthesia (ketamine 100 mg/kg, xylazin 16 mg/kg). Skin was opened above the sternum and the upper part of the sternum was cut on a length of 2 mm allowing the mouse to breath without the need of a ventilator. A surgical suture was passed under the aortic cross between the right brachiocephalic (innominate) artery and left common carotid artery and a 27-½ gauge blunt needle was placed parallel to the wall of the aortic cross as a calibrator. Two loose knots were tied around the aortic cross and the needle. […]
Echocardiography was performed on lightly anesthetized mice given isoflurane (induction with 2% isoflurane 100% O2. and maintained with 0.5% isoflurance 100% O2). Non-invasive measurements of left ventricular dimensions were evaluated using Doppler echocardiography (Vivid 7 Dimension/Vivid7 PRO; GE Medical Systems) with a probe ultrasound frequency range of 9-14 MHz. […] LV fractional shortening (FS) was calculated using the formula: (LVEDD−LVESD)/LVEDD×100. LV myocardial volume (LVV), LV end-diastolic volume (EDV), and end-systolic volume (ESV) were calculated using a half-ellipsoid model of the LV. From these volumes, LV ejection fraction (EF) was calculated using, the formula: (EDV−ESV)/EDV×100. H/R ratio was calculated by the formula (PWThd+IVSThd)/LVEDd.

SRF^HKO mice = assay: RT-qPCR gene expression in SRF HKO heart
Text: Transgenic mice. All experiments with animals conformed to the Directive 2010/63/EU of the European Parliament and were approved by the ethics committee Charles Darvin #5 (agreement 00369.01). SRF^HKO mice bear the tamoxifen-inducible α-MHC-MerCrMer transgene and the Siffloxed allele (Sf/Sf) as described previously (Parlakian et al. (2005). Temporally controlled onset of dilated cardiomyopathy through disruption of the SRF gene in adult heart. Journal 112, 2930-2939; Tritsch et al. (2013). An SRF/miR-1 axis regulates NCX1 and Annexin A5 protein levels in the normal and failing heart. Journal 98, 372-380). Transgenic mice have been bred for more than 20 generations in C57BL/6N background. The mice were housed in standard animal facility (CEF. Hôpital Pitié Salpétrière, agreement A-75-13-15, 75013 Paris), under a 12-h dark/light cycle. Tamoxifen (Sigma T5648) was administrated by i.p. injection at a dose of 0.7 mg diluted in 100 μl peanut oil at day (D) 0, D1 and D2. (Sf/Sf) littermates injected with tamoxifen at the same time than mutant were used as controls.
Nicotinamide and nicotinamide riboside i.p. administration. Nicotinamide was diluted in saline at 300 mM. Nicotinamide riboside (NR) bromide salt stock solution (1M) was in 10 mM citric acid pH 6.0. For injection 3 volumes of NR stock solution was mixed extemporaneously with 7 volumes of PBS to obtain a 300 mM injectable solution at pH 7.2. Mice were injected daily at a dose of 1 μmole/g body weight.
SRF^HKO and control (Sf/Sf) mice were administered either rodent maintenance SAFE A04 diet containing 3.10% crude fat. 16.10% crude proteins. 26% starch and 1.9% sugar (Scientific Animal Food Engineering, Paris, France) or SAFE # A04 diet supplemented with NR. NR was provided by Chromadex under brand name NIAGEN (Irvine Calif. USA). The soft pellets were manually prepared every 5 days by mixing 1.65 g of NR into 500 g of powdered SAFE A04 diet and 235 ml of water to reach 2.24 mg of NR/g (wet weight). Control diet was prepared in the same way omitting NR. Mice had ad libitum access to food and water. Mice (average body weight 31.3±0.82 g, no difference between groups) consumed an average of 6 g of soft food per day, reaching a daily intake of 450 mg NR/kg. No difference in food intake was observed between SRF^HKO and control mice.
cDNAs were reverse transcribed from RNA (1.5 μg) extracted in TRIzol (Thermofisher) from cell cultures and tissues using the Superscript II Reverse Transcriptase (Life Technologies). Quantitative PCR was carried out on a Light Cycler 480 (Roche Diagnostics) using Fast Start SYBR Green Master (Roche Diagnostics). Quantification of gene expression was calculated as R=2^ΔCt(Ref Cp−target Cp), with Hprt used as a as reference. Primers were designed using the NCBI Primer-BLAST software. Primer sequences are available on request.

Lmna^H222P/H222P mice = assay: qPCR of cardiac remodeling markers Myh7, Nppa, Col1a2 in heart; conditions: NR diet 9 weeks vs chow-diet
Experimental: Mice were bred in an accredited animal facility (accreditation number: C-75-13-08). All experiments on mice were approved by the Comité d'éthique en expérimentation animate Charles Darwin No 5. Mice Lmna^H222P/H222P were backcrossed 8 times to 129S2/SvPasOrlRj strain mice to obtain pure genetic background. Male mice used for the studies were maintained under a 12 h light/12 h dark cycle at constant temperature (23° C.) with free access to food and water. Nicotinamide riboside (NR) complementation: Animals at 17 weeks of age were fed for 9 weeks with either a chow diet (A04: Scientific Animal Food & Engineering) or a chow diet complemented with 0.25% of NR (kindly provided by ChromaDex, Inc. California) corresponding to a dose of 400 mg/kg/day for a mouse weighing 25 g eating 4 g of food per day. Nicotinamide (NAM) treatment: Animals at 17 weeks of age were injected intraperitoneally (IP) every two days (q.a.d.) for 9 weeks with either physiologic serum or physiologic serum added with NAM at 50 mg/ml corresponding to a dose of 500 mg/kg for a mouse weighing 25 g.
Total RNAs were extracted from around 5 mg of mouse heart using RNeasy Mini kit (Qiagen). RNAs integrity were controlled on the Bioanalyzer 2100 (Agilent). […] Relative mRNA transcript levels calculated using the 2^ΔCT method were normalized by comparison to housekeeping mRNA.

Question: What does the source list for `NC(=O)c1ccc[n+]([C@@H]2O[C@H](CO)[C@@H](O)[C@H]2O)c1` [NR, nicotinamide riboside]?
Answer: drop in LVEF triggered by TAC (TAC mice): limits; thickening of the interventricular septum (IVSTh) triggered by TAC (TAC mice): limits; expression level of the NADPH oxidase gene Nox4 (SRF^HKO mice; NR diet, heart of SRF HKO mice): increased; expression level of the Nfel2 gene encoding NRF2 and its target gene metallothionein 2 (SRF^HKO mice; NR diet, heart of SRF HKO mice): increased; expression level of G6pdx (SRF^HKO mice; SRF HKO mice under the NR diet): maintained at higher level than in controls; Srf and Nmrk2 expression levels (SRF^HKO mice; i.p. administration from D8 to D15): not changed; expression of Myh7, Nppa and Col1a2 (markers of cardiac remodeling) (Lmna^H222P/H222P mice): significant lowering

From patent publication US20190350955A1, “METHODS AND PHARMACEUTICAL COMPOSITIONS FOR THE TREATMENT OF CARDIOMYOPATHIES” (INSERM (Institut National de la Sante et de la Recherche …, priority 2016, published 2019)
